The subject of experiment [1] is immune cell populations in different tissues and organs. As to the kind of experiment: Delivery efficiency of eGFP mRNA encapsulating LNP to immune cell populations in different tissues and organs (flow cytometry). It is filed as in vivo. The conditions noted are these: eGFP mRNA-LNP intravenous, C57BL/6 mice, 6 hours; spleen, axillary lymph nodes, peripheral blood, bone marrow, lungs, liver; FIGS. 1A to 1F. How it is done:
C57BL/6 mice (3 mice per group) were intravenously injected with eGFP mRNA encapsulating LNP. After 6 hours, the mice were dissected, and the spleen, axillary lymph nodes, peripheral blood, bone marrow, lungs and liver were collected to prepare single-cell suspensions of various tissues and organs. After blocking with Fe blocking antibodies and surface staining with fluorescent-labeled antibodies, sample analysis was conducted by flow cytometry to analyze the expression levels of eGFP in various immune cell populations to confirm the delivery efficiency of lipid nanoparticles comprising different amino lipid compounds to immune cell populations in different tissues and organs.
On the technique in general: In flow cytometry, cells or beads pass a laser one at a time.

In experiment [2] the test system is BALB/c mice. Briefly: In vivo delivery of lipid nanoparticle encapsulating luciferase mRNA (Fluc mRNA), IVIS imaging. The conditions noted are these: for Total flux (fluorescence expression intensity): Fluc mRNA-LNP (amino lipid:DSPC:CHO-HP:PEG2000-DMG 48:10:40.5:1.5), whole body; for Total flux (fluorescence expression intensity) / Spleen (fluorescence expression intensity) / Liver (fluorescence expression intensity): 75 μL tail vein IV, female BALB/c mice, IVIS 6 hours after injection; for Spleen (fluorescence expression intensity) / (Spleen/Total Flux) * 100% / Multiple of spleen delivery/total delivery (Spleen/Total Flux) to Compound 118 / Liver (fluorescence expression intensity): Fluc mRNA-LNP; for (Spleen/Total Flux) * 100% / Multiple of spleen delivery/total delivery (Spleen/Total Flux) to Compound 118: tail vein IV, BALB/c mice, 6 hours; for Multiple of spleen delivery/total delivery (Spleen/Total Flux) to Compound 118: relative to Compound 118. The method, then:
The amino lipid compound of the present disclosure, a helper lipid, a structural lipid, and a PEG-lipid were separately dissolved in absolute ethanol to prepare respective solutions at concentrations of 20 mg/mL, 10 mg/mL, 20 mg/mL, and 25 mg/mL, respectively. The above four solutions were pipetted at a molar ratio of the amino lipid compound: DSPC:CHO-HP:PEG2000-DMG of 48:10:40.5:1.5, and mixed well to prepare an alcohol phase.
(2) Encapsulation: The water phase and the alcohol phase were injected into a microfluidic chip at a flow rate of water phase:alcohol phase=12 mL/min: 4 mL/min by using a microfluidic preparation instrument (MPE-L2), and encapsulation was carried out at a flow rate of water phase:alcohol phase=9 mL/min: 3 mL/min to obtain mRNA-encapsulating lipid nanoparticle (mRNA-LNP).
(3) Dialysis: The product of step (2) was loaded in a dialysis bag and placed in a Tris Buffer-8% sucrose solution for replacement to remove ingredients such as residual ethanol, unassembled lipids. Dialysis was conducted for 2 h with magnetic stirring at room temperature and under protection from light (dialysate was replaced every 1 hour).
(4) The product of step (3) was sterilized by passing through a 0.22 μm microporous membrane, and then packaged.
Lipid nanoparticle formulations encapsulating Flue mRNA were prepared, with a concentration of Flue mRNA of 0.2 μg/μL, a mass ratio of Flue mRNA to Lipid of 1:10, a particle size of 80-130 nm, and a encapsulation efficiency of 80% or higher.
• Animal preparation: Female BALB/c mice of 6-8 weeks old were selected and raised in an SPF grade breeding room. Animal testing was conducted in strict accordance with the guidelines of national health institutions and animal ethics requirements.
In vivo Delivery: prior to injection of the test LNP formulations, the LNP formulations were gently and repeatedly inverted to thoroughly mix the formulation samples. A corresponding amount of the formulation samples were aspirated with a 1 ml insulin syringe, and the LNP formulations were injected by tail vein injection (IV), with 3 mice in duplicate per formulation. Each mouse was injected with 75 μL of the luciferase mRNA (Flue mRNA)-encapsulating lipid nanoparticle formulation prepared in Experimental Example 1.
6 hours after injection of LNP formulations, mice were injected with 200 μL D-Luciferin luciferase developing substrate (Catalog No. 122799; Manufacturer: Perkin Elmer). After the substrate was injected, the mice were anesthetized by injection of 200 μl of 2.5% avertin, and the injection time of luciferase developing substrate was recorded.
The fluorescence expression intensity induced by the lipid nanoparticle encapsulating luciferase mRNA (Flue mRNA) with a representative amino lipid compound is shown in Table 4, with the amino lipid compound 118 as a control.

As to `CCCCCCC(CCCCCC)OC(=O)CCCCCCCCC(CCCCCCCCC(=O)OC(CCCCCC)CCCCCC)N(CCCN(C)C)C(=O)CCCOCCCCC` [compound 130], the “Delivery preference to immune cells (eGFP expression in immune cell populations)” value (shortened to “Delivery preference to immune cells”) in experiment [1] is “clear delivery preference to immune cells in various tissues and organs”. Besides, in experiment [2], the “Total flux (fluorescence expression intensity)” value was 5.73E+07, the “Spleen (fluorescence expression intensity)” value is given as 1.13E+07, the “(Spleen/Total Flux) * 100%” value was 19.72% and the “Multiple of spleen delivery/total delivery (Spleen/Total Flux) to Compound 118” value (shortened to “Multiple … (Spleen/Total Flux) to Compound 118”) came to 17.30.
Turning to `CCCCCCOCCCC(=O)N(CCCN(C)C)C(CCCCCCCCC(=O)OC(CCCCCC)CCCCCC)CCCCCCCCC(=O)OC(CCCCCC)CCCCCC` [compound 131], in experiment [1], the “Delivery preference to immune cells” value was “clear delivery preference to immune cells in various tissues and organs”. Further, in experiment [2], the “Total flux (fluorescence expression intensity)” value is recorded as 3.26E+07, the “Spleen (fluorescence expression intensity)” value stood at 6.59E+06, the “(Spleen/Total Flux) * 100%” value is reported as 20.21% and the “Multiple … (Spleen/Total Flux) to Compound 118” value stood at 17.73.
Consider `CCCCCCCCOCCCC(=O)N(CCCN(C)C)C(CCCCCCCCC(=O)OC(CCCCCC)CCCCCC)CCCCCCCCC(=O)OC(CCCCCC)CCCCCC` [compound 133], for which the “Delivery preference to immune cells” value in experiment [1] is “clear delivery preference to immune cells in various tissues and organs”. In addition, in experiment [2], the “Total flux (fluorescence expression intensity)” value stood at 3.58E+07, the “Spleen (fluorescence expression intensity)” value amounted to 1.25E+07, the “(Spleen/Total Flux) * 100%” value is listed as 34.92% and the “Multiple … (Spleen/Total Flux) to Compound 118” value turned out to be 30.63.
Take `CCCCCCCOCCCC(=O)N(CCN(C)C)C(CCCCCCCCC(=O)OC(CCCCCC)CCCCCC)CCCCCCCCC(=O)OC(CCCCCC)CCCCCC` [compound 157]: in experiment [2], the “Total flux (fluorescence expression intensity)” value was found to be 2.80E+07, the “Liver (fluorescence expression intensity)” value is recorded as 1.07E+07, the “Spleen (fluorescence expression intensity)” value amounted to 2.26E+05 and the “(Spleen/Total Flux) * 100%” value stood at 0.81%. For the same compound, the “Multiple … (Spleen/Total Flux) to Compound 118” value in experiment [2] is 0.71.
Consider `CCCCCCC(CCCCCC)OC(=O)CCCCCCCCC(CCCCCCCCC(=O)OC(CCCCCC)CCCCCC)N(CCCCN(C)C)C(=O)COCCCC` [compound 166], for which, in experiment [2], the “Total flux (fluorescence expression intensity)” value turned out to be 1.25E+07, the “Liver (fluorescence expression intensity)” value was found to be 7.74E+06, the “Spleen (fluorescence expression intensity)” value was 8.07E+06 and the “(Spleen/Total Flux) * 100%” value is 64.56%. Moreover, the “Multiple … (Spleen/Total Flux) to Compound 118” value in experiment [2] is recorded as 56.63.
Take `CCCCCCC(CCCCCC)OC(=O)CCCCCCCCC(CCCCCCCCC(=O)OC(CCCCCC)CCCCCC)N(CCCCN(C)C)C(=O)COCCCCC` [compound 167]: in experiment [2], the “Total flux (fluorescence expression intensity)” value amounted to 4.02E+07, the “Liver (fluorescence expression intensity)” value was 4.42E+06, the “Spleen (fluorescence expression intensity)” value came to 7.64E+06 and the “(Spleen/Total Flux) * 100%” value amounted to 19.00%. For the same compound, the “Multiple … (Spleen/Total Flux) to Compound 118” value in experiment [2] amounted to 16.67.
In the case of `CCCCCCOCC(=O)N(CCCCN(C)C)C(CCCCCCCCC(=O)OC(CCCCCC)CCCCCC)CCCCCCCCC(=O)OC(CCCCCC)CCCCCC` [compound 168], in experiment [2], the “Total flux (fluorescence expression intensity)” value worked out at 2.68E+07, the “Liver (fluorescence expression intensity)” value is given as 9.12E+06, the “Spleen (fluorescence expression intensity)” value was found to be 8.95E+06 and the “(Spleen/Total Flux) * 100%” value came to 33.40%. For the same compound, the “Multiple … (Spleen/Total Flux) to Compound 118” value in experiment [2] was found to be 29.29.
Turning to `CCCCCCCOCC(=O)N(CCCCN(C)C)C(CCCCCCCCC(=O)OC(CCCCCC)CCCCCC)CCCCCCCCC(=O)OC(CCCCCC)CCCCCC` [compound 169], in experiment [2], the “Total flux (fluorescence expression intensity)” value amounted to 1.17E+07, the “Liver (fluorescence expression intensity)” value came to 6.59E+06, the “Spleen (fluorescence expression intensity)” value is listed as 5.11E+06 and the “(Spleen/Total Flux) * 100%” value amounted to 43.68%. In addition, the “Multiple … (Spleen/Total Flux) to Compound 118” value in experiment [2] is 38.31.
For `CCCCCCCCOCC(=O)N(CCCCN(C)C)C(CCCCCCCCC(=O)OC(CCCCCC)CCCCCC)CCCCCCCCC(=O)OC(CCCCCC)CCCCCC` [compound 170], in that order: 2.89E+07, 1.34E+07, 1.07E+07, 37.02% and 32.48.
Consider `CCCCCCC(CCCCCC)OC(=O)CCCCCCCCC(CCCCCCCCC(=O)OC(CCCCCC)CCCCCC)N(CCCCN(C)C)C(=O)CCOCCCC` [compound 171], for which, in experiment [2], the “Total flux (fluorescence expression intensity)” value is on record as 1.15E+07, the “Liver (fluorescence expression intensity)” value is 5.33E+06, the “Spleen (fluorescence expression intensity)” value is reported as 3.97E+06 and the “(Spleen/Total Flux) * 100%” value is reported as 34.52%. Moreover, the “Multiple … (Spleen/Total Flux) to Compound 118” value in experiment [2] was 30.28.
On to `CCCCCCC(CCCCCC)OC(=O)CCCCCCCCC(CCCCCCCCC(=O)OC(CCCCCC)CCCCCC)N(CCCCN(C)C)C(=O)CCOCCCCC` [compound 172], for which, in experiment [2], the “Total flux (fluorescence expression intensity)” value was 8.64E+07, the “Liver (fluorescence expression intensity)” value is given as 3.10E+07, the “Spleen (fluorescence expression intensity)” value is 9.69E+06 and the “(Spleen/Total Flux) * 100%” value worked out at 11.22%. In experiment [2], the “Multiple … (Spleen/Total Flux) to Compound 118” value came to 9.84.
Regarding `CCCCCCOCCC(=O)N(CCCCN(C)C)C(CCCCCCCCC(=O)OC(CCCCCC)CCCCCC)CCCCCCCCC(=O)OC(CCCCCC)CCCCCC` [compound 173], in experiment [2], the “Total flux (fluorescence expression intensity)” value was 2.07E+07, the “Liver (fluorescence expression intensity)” value is 9.15E+06, the “Spleen (fluorescence expression intensity)” value stood at 8.03E+06 and the “(Spleen/Total Flux) * 100%” value is listed as 38.79%. The “Multiple … (Spleen/Total Flux) to Compound 118” value in experiment [2] is listed as 34.03.
Consider `CCCCCCCOCCC(=O)N(CCCCN(C)C)C(CCCCCCCCC(=O)OC(CCCCCC)CCCCCC)CCCCCCCCC(=O)OC(CCCCCC)CCCCCC` [compound 174], for which, in experiment [2], the “Total flux (fluorescence expression intensity)” value was found to be 9.59E+07, the “Liver (fluorescence expression intensity)” value is 1.62E+07, the “Spleen (fluorescence expression intensity)” value is given as 7.28E+06 and the “(Spleen/Total Flux) * 100%” value worked out at 7.59%. Further, in experiment [2], the “Multiple … (Spleen/Total Flux) to Compound 118” value is reported as 6.66.
`CCCCCCCCOCCC(=O)N(CCCCN(C)C)C(CCCCCCCCC(=O)OC(CCCCCC)CCCCCC)CCCCCCCCC(=O)OC(CCCCCC)CCCCCC` [compound 175]: in experiment [2], the “Total flux (fluorescence expression intensity)” value is on record as 5.15E+07, the “Liver (fluorescence expression intensity)” value was 1.57E+07, the “Spleen (fluorescence expression intensity)” value is recorded as 1.21E+07 and the “(Spleen/Total Flux) * 100%” value turned out to be 23.50%. Besides, in experiment [2], the “Multiple … (Spleen/Total Flux) to Compound 118” value turned out to be 20.61.
On to `CCCCCCC(CCCCCC)OC(=O)CCCCCCCCC(CCCCCCCCC(=O)OC(CCCCCC)CCCCCC)N(CCCCN(C)C)C(=O)CCCOCCCCC` [compound 177], for which, in experiment [2], the “Total flux (fluorescence expression intensity)” value is recorded as 2.52E+07, the “Liver (fluorescence expression intensity)” value was 5.04E+06, the “Spleen (fluorescence expression intensity)” value is on record as 3.23E+06 and the “(Spleen/Total Flux) * 100%” value was 12.82%. Further, in experiment [2], the “Multiple … (Spleen/Total Flux) to Compound 118” value is reported as 11.24.
For `CCCCCCOCCCC(=O)N(CCCCN(C)C)C(CCCCCCCCC(=O)OC(CCCCCC)CCCCCC)CCCCCCCCC(=O)OC(CCCCCC)CCCCCC` [compound 178], in experiment [2], the “Total flux (fluorescence expression intensity)” value stood at 6.68E+07, the “Liver (fluorescence expression intensity)” value is reported as 1.15E+07, the “Spleen (fluorescence expression intensity)” value came to 3.95E+06 and the “(Spleen/Total Flux) * 100%” value was determined as 5.91%. The “Multiple … (Spleen/Total Flux) to Compound 118” value in experiment [2] was 5.19.

Values taken from patent US20260015315A1, “AMINO LIPID COMPOUND, PREPARATION METHOD THEREFOR, COMPOSITION THEREOF AND APPLICATION THEREOF” (SHENZHEN SHENXIN BIOTECHNOLOGY CO., LTD., priority 2022, published 2026).
